Among the data in ChEMBL document CHEMBL1158490, “Discovery of leukotriene A4 hydrolase inhibitors using metabolomics biased fragment crystallography” (J Med Chem, 2009) are IC50 values, retold here.

Broadly, the IC50 is the point on the concentration scale where inhibition reaches its midpoint.

Structures are written as SMILES.

The target of this assay is T1, Leukotriene A-4 hydrolase (Homo sapiens, UniProt P09960).
T1 sequence (P09960 whole entry): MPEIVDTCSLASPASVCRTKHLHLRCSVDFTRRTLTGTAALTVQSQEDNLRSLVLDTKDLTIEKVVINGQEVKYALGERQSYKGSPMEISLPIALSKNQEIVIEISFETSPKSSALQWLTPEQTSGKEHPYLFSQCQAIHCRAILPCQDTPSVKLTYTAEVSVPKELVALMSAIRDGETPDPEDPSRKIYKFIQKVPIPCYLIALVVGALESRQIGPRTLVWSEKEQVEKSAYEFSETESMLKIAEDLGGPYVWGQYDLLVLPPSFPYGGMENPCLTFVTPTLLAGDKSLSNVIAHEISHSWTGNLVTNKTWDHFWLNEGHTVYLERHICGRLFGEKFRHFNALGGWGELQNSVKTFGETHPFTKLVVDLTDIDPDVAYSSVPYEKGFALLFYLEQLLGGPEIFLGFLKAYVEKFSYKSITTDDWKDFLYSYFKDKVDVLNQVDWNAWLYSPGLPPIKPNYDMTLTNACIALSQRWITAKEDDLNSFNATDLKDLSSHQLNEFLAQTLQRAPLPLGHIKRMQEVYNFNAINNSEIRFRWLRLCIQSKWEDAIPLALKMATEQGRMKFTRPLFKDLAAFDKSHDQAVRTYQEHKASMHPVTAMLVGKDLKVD
In words: Inhibition of peptidase activity of human recombinant LTA4H expressed in Escherichia coli BL21-AI/pRARE.
With `c1ccc(NCc2cccnc2)cc1`, the IC50 turned out to be 1320 µM. On to `Oc1ccc2[nH]ccc2c1`, for which the IC50 is > 1000 µM.

In the case of `CNCc1ccccc1-c1cccs1`, the IC50 came out at 1080 µM.

As to `Fc1ccc2[nH]ccc2c1`, the half-maximal inhibitory concentration (IC50) was > 1000 µM. As to `OC(c1ccncc1)c1ccc(OCCN2CCCC2)cc1` (centres undefined), the IC50 was 202 µM. With `O=C(O)C1CCN(CCOc2ccc3[nH]ccc3c2)CC1` the figure was 1490 µM; with `c1cc2cc(OCCN3CCCC3)ccc2[nH]1`, 321 µM; with `c1ccc(CNc2ccc(OC[C@H]3CCCN3)cc2)cc1`, 0.207 µM. For the compound `Oc1ccc(CCc2cc(O)cc(O)c2)cc1` [DIHYDRORESVERATROL], the IC50 worked out at 145 µM.
